Results on 29 compounds are retold here after patent US20080182842A1, “L-alanine derivatives as a5beta1 antagonists” (ASTRAZENECA AB, priority 2007, published 2008).

In the assay the target is α5β1 integrin (Homo sapiens, UniProt P05556+P08648). The experiment in a line: In vitro binding assay (a): inhibition of binding of α5β1 integrin to fibronectin fragment Fn9-10 (Origen electrochemiluminescence). As to conditions: recombinant human α5β1 vs Fn9-10 ligand; geometric mean where tested more than once. The source says: (a) In Vitro Binding Assay
Sequence of α5β1 integrin (P08648 42-894 limits assumed): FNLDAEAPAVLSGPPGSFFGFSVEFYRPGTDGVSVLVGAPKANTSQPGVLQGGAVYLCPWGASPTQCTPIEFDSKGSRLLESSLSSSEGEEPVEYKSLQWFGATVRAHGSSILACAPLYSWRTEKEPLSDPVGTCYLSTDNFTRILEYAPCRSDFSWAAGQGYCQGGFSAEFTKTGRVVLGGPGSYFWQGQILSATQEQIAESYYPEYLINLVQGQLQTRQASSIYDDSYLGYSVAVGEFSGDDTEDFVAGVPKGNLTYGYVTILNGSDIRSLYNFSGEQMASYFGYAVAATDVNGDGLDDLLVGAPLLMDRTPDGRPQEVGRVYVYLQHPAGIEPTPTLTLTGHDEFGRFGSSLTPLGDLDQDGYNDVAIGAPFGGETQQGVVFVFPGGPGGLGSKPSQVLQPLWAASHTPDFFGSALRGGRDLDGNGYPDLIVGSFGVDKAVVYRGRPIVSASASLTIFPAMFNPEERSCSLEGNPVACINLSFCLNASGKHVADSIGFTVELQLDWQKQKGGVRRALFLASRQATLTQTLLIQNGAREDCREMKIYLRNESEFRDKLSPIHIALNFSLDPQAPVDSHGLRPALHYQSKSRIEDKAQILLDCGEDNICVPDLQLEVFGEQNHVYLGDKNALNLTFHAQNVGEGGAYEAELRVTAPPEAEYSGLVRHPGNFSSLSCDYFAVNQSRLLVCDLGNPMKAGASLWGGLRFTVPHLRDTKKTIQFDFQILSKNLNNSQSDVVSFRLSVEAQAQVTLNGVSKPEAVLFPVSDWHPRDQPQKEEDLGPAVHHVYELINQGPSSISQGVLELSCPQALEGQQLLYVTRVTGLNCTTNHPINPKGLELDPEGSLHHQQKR
Sequence of α5β1 integrin (P08648 895-1049 partner limits assumed): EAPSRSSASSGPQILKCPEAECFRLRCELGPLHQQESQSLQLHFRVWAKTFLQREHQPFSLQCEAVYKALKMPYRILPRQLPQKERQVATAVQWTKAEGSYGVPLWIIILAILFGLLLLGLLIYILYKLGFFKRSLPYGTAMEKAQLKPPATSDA
Sequence of α5β1 integrin (P05556 21-798): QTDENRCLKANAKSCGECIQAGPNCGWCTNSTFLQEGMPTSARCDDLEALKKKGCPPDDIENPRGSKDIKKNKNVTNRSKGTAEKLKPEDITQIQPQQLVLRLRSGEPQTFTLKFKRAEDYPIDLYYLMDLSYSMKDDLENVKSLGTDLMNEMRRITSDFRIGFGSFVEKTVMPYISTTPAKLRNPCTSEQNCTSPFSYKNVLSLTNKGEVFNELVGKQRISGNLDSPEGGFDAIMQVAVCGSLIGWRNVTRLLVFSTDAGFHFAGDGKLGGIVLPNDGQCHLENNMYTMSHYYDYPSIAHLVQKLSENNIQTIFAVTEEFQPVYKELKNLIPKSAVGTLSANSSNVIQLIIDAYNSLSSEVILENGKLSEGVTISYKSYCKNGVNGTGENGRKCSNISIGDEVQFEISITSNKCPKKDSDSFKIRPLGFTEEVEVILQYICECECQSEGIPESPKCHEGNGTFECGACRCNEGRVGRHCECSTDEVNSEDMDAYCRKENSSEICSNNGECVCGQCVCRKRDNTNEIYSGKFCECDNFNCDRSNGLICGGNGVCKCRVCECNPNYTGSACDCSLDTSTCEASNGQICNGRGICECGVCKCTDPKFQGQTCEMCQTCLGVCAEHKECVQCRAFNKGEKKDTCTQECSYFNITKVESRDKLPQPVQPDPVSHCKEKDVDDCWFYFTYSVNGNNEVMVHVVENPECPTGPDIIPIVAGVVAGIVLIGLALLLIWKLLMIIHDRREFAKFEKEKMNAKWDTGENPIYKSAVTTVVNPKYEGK
The assay determined the ability of compounds to inhibit binding of α5β1 integrin to a cognate ligand, a fragment of human fibronectin. The assay used Origen technology (IGEN International) to measure the compound activity. Briefly, α5β1 integrin was coated onto epoxy-paramagnetic beads (Dynal Biotech UK, Bromborough, Wirral, CH62 3QL, UK, Catalogue No 140.11) and biotinylated-fibronectin ligand was coupled to strepatividin labeled Tag-NHS-Ester (BioVeris Corporation, Witney, Oxfordshire, OX28 4GE, UK, Catalogue No 110034). The ruthenium-labeled tag emits an electrochemiluminescence signal upon stimulation which is detected by the Origen reader. Thus, interaction of integrin and ligand causes association of bead and tag, and the resulting electrochemiluminescence signal reflects the level of integrin interaction with fibronectin.
20 μg of recombinant human α5β1 was coated onto 4×10(7) epoxy-paramagnetic beads according to manufacturers instructions at 4° C. for 24 hours. Integrin coating and corresponding activity was subsequently measured for each batch but typically, 25 ng of coated protein was used per assay well.
A DNA fragment encoding the domains 9-10 (amino-acids 1325-1509) of human fibronectin (Swiss-Prot Accession No. P02751) was isolated from cDNA libraries using standard molecular biology and PCR cloning techniques. The cDNA fragment was sub-cloned into a pT73.3 expression vector containing a GST-epitope tag (developed at AstraZeneca; Bagnall et al., Protein Expression and Purification, 2003, 27: 1-11). Following expression in E. coli, the expressed protein, termed Fn9-10, was purified using the GST-tag using standard purification techniques. The recombinant Fn9-10 was subsequently biotinylated using a EZ-link Sulfo-NHS-LC-Biotinylation kit (Perbio Science UK Ltd., Cramlington, Northumberland, NE23 1WA, UK, Catalogue No. 21335) and made to give a final concentration of approximately 1 mg/ml. Tag-NHS-Ester was labeled with streptavidin by incubation at room temperature following manufacturers instructions and buffer-exchanged into PBS to give a concentration of 0.5 mg/ ml. Immediately prior to the assay, biotinylated-Fn9-10 and Streptavidin-labeled Tag were diluted in Assay Buffer to give a final concentrations of 0.6 ug/ml and 1.5 ug/ml respectively. The Fn9-10 and Tag solutions were then mixed together in equal volumes and incubated on ice for at least 30 minutes prior to the assay.
Test compounds were prepared as 10 mM stock solutions in DMSO (Sigma-Aldrich Company Ltd, Gillingham, Dorset SP8 4XT Catalogue No. 154938) and serially diluted with 4% DMSO to give a range of test concentrations at ×4 required final concentration. Aliquots (20 μl) of each compound dilution were placed into each well of a 384-well round bottomed polypropylene plate (Matrix Technologies, Wilmslow, Cheshire, SK9 3LP, Catalogue No. 4340 384). Each plate also contained control wells: maximum signal was created using wells containing 20 μl of 4% DMSO, and minimum signal corresponding to no binding was created using wells containing 20 μl of 80 mM EDTA (Sigma Catalogue No. E7889).
For the assay, 25 ng(20 ul) of a5b1-bead suspension and 40 μl of the Fn9-10/Tag pre-incubated solution were added to each well containing 20 μl of compound or control solution. Assay plates were then incubated at room temperature for a minimum of 6 hours before being analysed on an Origen plate reader. The minimum value was subtracted from all values, and the signal was plotted against compound concentration to generate IC50 data.
The data in the above table was generated in an assay substantially as described above in relation to Binding Assay (a). Some of the compounds shown in the table were tested more than once in the assay. For those compounds the IC50 value shown is the geometric mean of the measured IC50 values. […]
The term IC50 denotes the point on the concentration scale where inhibition reaches its midpoint. For the compound `CNc1cccc(CCOc2ccc(C[C@H](NC(=O)C3(C)CCCCC3)C(=O)O)cc2)n1` [Example 1.1, O-{2-[6-(methylamino)pyridin-2-yl]ethyl}-N-[(1-methylcyclohexyl)carbonyl]-L-tyrosine], the IC50 was 0.005 µM.
In the case of `CNc1cccc(CCOc2ccc(C[C@H](NC(=O)C3CCCCC3C)C(=O)O)cc2)n1` (stereo partly drawn) [Example 1.2, O-{2-[6-(methylamino)pyridin-2-yl]ethyl}-N-[(2-methylcyclohexyl)carbonyl]-L-tyrosine], the half-maximal inhibitory concentration (IC50) was found to be 0.007 µM.
The result for `CNc1cccc(CCOc2ccc(C[C@H](NC(=O)[C@H](C)OC)C(=O)O)cc2)n1` [Example 1.3, N-[(2S)-2-methoxypropanoyl]-O-{2-[6-(methylamino)pyridin-2-yl]ethyl}-L-tyrosine] reads 0.022 µM; that for `CNc1cccc(CCOc2ccc(C[C@H](NC(=O)[C@H](CC(C)C)NC(=O)c3ccccc3)C(=O)O)cc2)n1` [Example 1.4, N-benzoylleucyl-O-{2-[6-(methylamino)pyridin-2-yl]ethyl}-L-tyrosine], 0.066 µM.
As for `CNc1cccc(CCOc2ccc(C[C@H](NC(=O)C(C)(C)C(=O)N3CCCC3)C(=O)O)cc2)n1` [Example 1.5, N-(2,2-dimethyl-3-oxo-3-pyrrolidin-1-ylpropanoyl)-O-{2-[6-(methylamino)pyridin-2-yl]ethyl}-L-tyrosine], the figure is 0.002 µM.
The result for `CNc1cccc(CCOc2ccc(C[C@H](NC(=O)C3(O)CC3)C(=O)O)cc2)n1` [Example 1.6, N-[(1-hydroxycyclopropyl)carbonyl]-O-{2-[6-(methylamino)pyridin-2-yl]ethyl}-L-tyrosine] reads 0.958 µM; that for `CNc1cccc(CCOc2ccc(C[C@H](NC(=O)C3(OC)CCOCC3)C(=O)O)cc2)n1` [Example 1.7, N-[(4-methoxytetrahydro-2H-pyran-4-yl)carbonyl]-O-{2-[6-(methylamino)pyridin-2-yl]ethyl}-L-tyrosine], 0.004 µM; that for `CC#CC(=O)N[C@@H](Cc1ccc(OCCc2cccc(NC)n2)cc1)C(=O)O` [Example 1.8, N-but-2-ynoyl-O-{2-[6-(methylamino)pyridin-2-yl]ethyl}-L-tyrosine], 0.363 µM.
For `CCC(=O)N[C@@H](Cc1ccc(OCCc2cccc(NC)n2)cc1)C(=O)O` [Example 1.9, O-{2-[6-(methylamino)pyridin-2-yl]ethyl}-N-propionyl-L-tyrosine], the IC50 worked out at 0.116 µM.
Take `CCCCCC(=O)N[C@@H](Cc1ccc(OCCc2cccc(NC)n2)cc1)C(=O)O` [Example 1.10, N-hexanoyl-O-{2-[6-(methylamino)pyridin-2-yl]ethyl}-L-tyrosine]: the IC50 was 0.179 µM.
The result for `CNc1cccc(CCOc2ccc(C[C@H](NC(=O)C(C)C)C(=O)O)cc2)n1` [Example 1.11, N-isobutyryl-O-{2-[6-(methylamino)pyridin-2-yl]ethyl}-L-tyrosine] reads 0.073 µM; that for `CCCCC(CC)C(=O)N[C@@H](Cc1ccc(OCCc2cccc(NC)n2)cc1)C(=O)O` (stereo partly drawn) [Example 1.12, N-(2-ethylhexanoyl)-O-{2-[6-(methylamino)pyridin-2-yl]ethyl}-L-tyrosine], 0.008 µM; that for `CNc1cccc(CCOc2ccc(C[C@H](NC(=O)C(C)(C)C)C(=O)O)cc2)n1` [Example 1.13, N-(2,2-dimethylpropanoyl)-O-{2-[6-(methylamino)pyridin-2-yl]ethyl}-L-tyrosine], 0.034 µM.
The result for `CNc1cccc(CCOc2ccc(C[C@H](NC(=O)C3CCCCCC3)C(=O)O)cc2)n1` [Example 1.14, N-(cycloheptylcarbonyl)-O-{2-[6-(methylamino)pyridin-2-yl]ethyl}-L-tyrosine] reads 0.007 µM; that for `CNc1cccc(CCOc2ccc(C[C@H](NC(=O)C3CCCCC3)C(=O)O)cc2)n1` [Example 1.15, N-(cyclohexylcarbonyl)-O-{2-[6-(methylamino)pyridin-2-yl]ethyl}-L-tyrosine], 0.032 µM; that for `CNc1cccc(CCOc2ccc(C[C@H](NC(=O)C3CCCC3)C(=O)O)cc2)n1` [Example 1.16, N-(cyclopentylcarbonyl)-O-{2-[6-(methylamino)pyridin-2-yl]ethyl}-L-tyrosine], 0.009 µM.
The result for `CNc1cccc(CCOc2ccc(C[C@H](NC(=O)C3CCC3)C(=O)O)cc2)n1` [Example 1.17, N-(cyclobutylcarbonyl)-O-{2-[6-(methylamino)pyridin-2-yl]ethyl}-L-tyrosine] reads 0.049 µM.
Regarding `CNc1cccc(CCOc2ccc(C[C@H](NC(=O)C3CC3)C(=O)O)cc2)n1` [Example 1.18, N-(cyclopropylcarbonyl)-O-{2-[6-(methylamino)pyridin-2-yl]ethyl}-L-tyrosine], the IC50 stood at 0.608 µM.
The result for `CNc1cccc(CCOc2ccc(C[C@H](NC(=O)[C@@H](C)OC)C(=O)O)cc2)n1` [Example 1.19, N-[(2R)-2-methoxypropanoyl]-O-{2-[6-(methylamino)pyridin-2-yl]ethyl}-L-tyrosine] reads 0.029 µM; that for `CNc1cccc(CCOc2ccc(C[C@H](NC(=O)C3(CO)CCOCC3)C(=O)O)cc2)n1` [Example 1.20, N-{[4-(hydroxymethyl)tetrahydro-2H-pyran-4-yl]carbonyl}-O-{2-[6-(methylamino)pyridin-2-yl]ethyl}-L-tyrosine], 0.032 µM; that for `CNc1cccc(CCOc2ccc(C[C@H](NC(=O)CCc3ccccc3)C(=O)O)cc2)n1` [Example 1.21, O-{2-[6-(methylamino)pyridin-2-yl]ethyl}-N-(3-phenylpropanoyl)-L-tyrosine], 0.045 µM.
As for `CNc1cccc(CCOc2ccc(C[C@H](NC(=O)Cc3ccccc3)C(=O)O)cc2)n1` [Example 1.22, O-{2-[6-(methylamino)pyridin-2-yl]ethyl}-N-(phenylacetyl)-L-tyrosine], the figure is 0.215 µM.
With `CNc1cccc(CCOc2ccc(C[C@H](NC(=O)C(O)c3ccccc3)C(=O)O)cc2)n1` (stereo partly drawn) [Example 1.23, N-[hydroxy(phenyl)acetyl]-O-{2-[6-(methylamino)pyridin-2-yl]ethyl}-L-tyrosine], the half-inhibitory concentration (IC50) was 0.837 µM.
As to `CNc1cccc(CCOc2ccc(C[C@H](NC(=O)C(c3ccccc3)c3ccccc3)C(=O)O)cc2)n1` [Example 1.24, N-(diphenylacetyl)-O-{2-[6-(methylamino)pyridin-2-yl]ethyl}-L-tyrosine], the 50% inhibitory concentration (IC50) was determined as 0.045 µM.
The result for `CNc1cccc(CCOc2ccc(C[C@H](NC(=O)Cc3ccccn3)C(=O)O)cc2)n1` [Example 1.25, O-{2-[6-(methylamino)pyridin-2-yl]ethyl}-N-(pyridin-2-ylacetyl)-L-tyrosine] reads 0.235 µM; that for `CNc1cccc(CCOc2ccc(C[C@H](NC(=O)Cc3cccnc3)C(=O)O)cc2)n1` [Example 1.26, O-{2-[6-(methylamino)pyridin-2-yl]ethyl}-N-(pyridin-3-ylacetyl)-L-tyrosine], 0.525 µM; that for `CNc1cccc(CCOc2ccc(C[C@H](NC(=O)Cc3ccncc3)C(=O)O)cc2)n1` [Example 1.27, O-{2-[6-(methylamino)pyridin-2-yl]ethyl}-N-(pyridin-4-ylacetyl)-L-tyrosine], 0.287 µM.
With `CC1(C(=O)N[C@@H](Cc2ccc(OCCc3ccc4c(n3)NCCC4)cc2)C(=O)O)CCCCC1` [Example 2.1, N-[(1-methylcyclohexyl)carbonyl]-O-[2-(5,6,7,8-tetrahydro-1,8-naphthyridin-2-yl)ethyl]-L-tyrosine], the IC50 worked out at 0.001 µM.
As for `CC1CCCCC1C(=O)N[C@@H](Cc1ccc(OCCc2ccc3c(n2)NCCC3)cc1)C(=O)O` (stereo partly drawn) [Example 2.2, N-[(2-methylcyclohexyl)carbonyl]-O-[2-(5,6,7,8-tetrahydro-1,8-naphthyridin-2-yl)ethyl]-L-tyrosine], the figure is less than 0.001 µM.
